Six substances from patent US20230087644A1, “Probe for Specifically Detecting Pathological Collagens, and Preparation Method Therefor and Use Thereof” (LANZHOU UNIVERSITY, priority 2020, published 2023) can be followed below.

Series [1] in a line: Colorimetric assay of peptide probe solutions (trimer vs single-stranded state). The format is physicochemical. The conditions noted are these: 300 μM probe solution; for conformational state (colour of solution) at 0° C.: 0° C. ice-water for 12 h after heating; for conformational state (colour of solution) after heating: 85° C. water bath 20 min. The procedure:
Take the peptide probe GOP-10, GPP-10, GPO-10 and GOO-10, and prepare 300 μM probe solutions respectively; Keep above probe solutions in a water bath at 85° C. for 20 min, and collect picture data via a digital camera and observe the color of the solutions. Place heated probe solution in the ice-water mixture at 0° C. for 12 h, and then collect picture data via a digital camera again and observe the color of the solution.

Series [2] can be described thus: Fluorescence spectrogram of probe solutions after 85° C. water bath and 0° C. ice bath. It counts as physicochemical. The conditions noted are these: 300 μM probe solution, excitation 497 nm, emission 500-700 nm. As for the experimental part:
Take the peptide probe GOP-10, GPP-10, GPO-10 and GOO-10, and prepare 300 μM probe solutions respectively; Keep above probe solutions in a water bath at 85° C. for 20 min, and measure the fluorescence spectrogram by a fluorescence spectrophotometer immediately. Place heated probe solution in the ice-water mixture at 0° C. for 12 h, and measure the fluorescence spectrogram by fluorescence spectrophotometer again; The excitation wavelength is 497 nm, and the scanning range of emission spectrum is 500-700 nm.

The nature of series [3]: Thermal stability test (fluorescence intensity at 525 nm, 0-95° C.). It counts as physicochemical. The conditions noted are these: 15 μM probe in 10 mM phosphate buffer; for fluorescence intensity in the range of 0-95° C.: 525 nm, temperature gradient; for thermal transformation temperature: from derivative curves. The procedure:
Take the peptide probe GOP-10, GPP-10, GPO-10 and GOO-10, and prepare 300 μM probe solutions respectively; Dilute each probe solution to 15 μM by 10 mM phosphate buffer, and store at 0° C. for later use. Take the probe solutions respectively, raise the temperature from 0° C. to 95° C. in a gradient, and detect the fluorescence intensity of the solutions at 525 nm during the temperature rise process to obtain the […]; Conduct the first derivative of the curve by corresponding the maximum value of the curve to the thermal change temperature of the probe.

Series [4] has as its system denatured collagen in mouse intestinal tissue. In words: Staining of collagen in intestinal tissue of mice by peptide probe. The format is binding. Particulars: 15 μM probe; for fluorescence staining ability, probe incubated at 0° C. before staining: FIG. 5a-d; for fluorescence staining ability, probe pretreated at 85° C. before staining: FIG. 5e-h. As for the experimental part: Take the peptide probe GOP-10, GPP-10, GPO-10 and GOO-10, and prepare 300 μM probe solutions respectively; Take the intestinal tissue samples of mice paraffin embedding and slice to 4 μm; After washing and deparaffinating the slices, treat the intestinal tissue with ultrapure water at 85° C. for 10 minutes to denature collagen.

Series [5] deals with denatured collagen in sternum and tail tissue sections. Put plainly: Staining of denatured collagen in paraffin-embedded mouse sternum and frozen tail tissue sections. The conditions noted are these: general statement on the probes of the embodiments. The format is binding. The procedure: Take the peptide probe prepared in Embodiment 1-5 for staining experiment. Paraffin staining of sternum: Embed mouse sternum tissue sections by paraffin and bake at 75° C. for 2 h; After cooling, treat the tissue with xylene twice, each time for 10 min; Then treat the slice with ethanol of gradient concentration; Finally, use ultrapure water to wash the slices twice. After removing the paraffin, treat the sternum tissue with ultrapure water at 85° C. for 10 minutes to denature collagen. Add blocking solution to the tissue section, leave it for 30 min, then suck up the solution, stain with 100 μL and 15 μM of the above peptide probe solutions, and incubate at 4° C. for 4 h; After removing the staining solution, wash with 1×PBS for 3 times, and wash the unbound probe with the washing solution; Drop mount solution, add cover slide, observe and take photos with fluorescence microscope.
Staining of frozen tail tissue: Treat tail tissue with 1% sodium dodecyl sulfate for 24 hours to denature collagen, and prepare the frozen sections. Put the slices in cold methanol and fix them at −20° C. for 10 min. Wash the frozen sections twice with PBS, add blocking solution to the tissue section, leave it for 30 min, then suck up the solution, stain with 100 μL and 15 μM of the above peptide probe solutions, and incubate at 4° C. for 2 h; After removing the staining solution, wash with 1×PBS for 3 times, and wash the unbound probe with the washing solution; Drop mount solution, add cover slide, observe and take photos with fluorescence microscope.
Results: The staining results of paraffin-embedded sternum tissues of peptide probe GOP-4, GOP-6, GOP-8, GOP-10 and GOP-12 prepared in Embodiment 1-5 of the present invention are shown in FIG. 1a.

The test system of series [6] is pathological collagen in mouse ear tissue. In words: Staining of collagen in ear tissue of normal mice and diseased mice by peptide probe. The conditions noted are these: 15 μM probe. It counts as binding. The procedure: Take the peptide probe GOP-10 and prepare 300 μM probe solutions;
Take mouse ear tissue samples for paraffin embedding and slice to 4 μm; After washing and deparaffinating the slice, treat part of the ear bone tissues with ultrapure water at 85° C. for 10 minutes to denature collagen, thus obtaining injured ear tissues; Untreated ear tissue is normal ear tissue. Add blocking solution to the tissue section, leave it for 30 min, then suck up the solution, stain with 100 μL and 15 μM of the above peptide probe solutions, and incubate at 4° C. for 4 h; After removing the staining solution, stain with 100 μL DAPI diluent for lmin and wash with 1×PBS for 3 times, and wash the unbound probe and excessive DAPI diluent with the washing solution; Drop mount solution, add cover slide, observe and take photos with fluorescence microscope;
The test results are shown in FIG. 6, in which the fluorescence detection results of injured mouse ear tissues are shown in FIG. 6a and normal mouse ear tissues are shown in FIG. 6b.

For series [7], the system named is pathological collagen in human osteoarthritis tissue. In words: Staining of pathological section of human arthritis. Particulars: 15 μM probe, 4° C. 4 h. It counts as binding. As for the experimental part: Take human osteoarthritis tissue for paraffin embedding, slice to 4 μm, carry out washing and deparaffinating, and then add with 0.5 mL blocking solution, and suck off the liquid after placing for 30 min. Stain with 100 μL, 15 μM peptide probe solution, and incubate at 4° C. for 4 h. After removing the staining solution, stain with 100 μL DAPI diluent for 1 min. Use 1×PBS to wash for 3 times, and wash the unbound probes and excess DAPI. Drop mount solution, add cover slide, observe and take photos with fluorescence microscope.
The staining results of pathological sections of fibrocartilage of human osteoarthritis are shown in FIG. 7, and the staining results of pathological sections of hyaline cartilage of human osteoarthritis are shown in FIG. 8. […] Therefore, the peptide probe GOP-10 prepared by the invention can be used for detecting pathological collagen in human osteoarthritis fibrocartilage and osteoarthritis hyaline cartilage.

Consider FAM-Ahx-(GOO)10-NH2 [GOO-10], for which, in series [1], the “conformational state (colour of solution) at 0° C.” value (shortened to “conformational state … at 0° C.”) was “trimer state (orange)” and the “conformational state (colour of solution) after heating” value (shortened to “conformational state … after heating”) is on record as “single-stranded conformation (green)”. For the same substance, in series [2], the “change of fluorescence intensity between 85° C. water bath and 0° C. ice bath” value (“change” below) is given as “changed significantly”. For the same substance, in series [3], the “fluorescence intensity in the range of 0-95° C.” value was “increased significantly” and the thermal transformation temperature worked out at 69 °C. Further, in series [4], the “fluorescence staining ability, probe incubated at 0° C. before staining” value is given as “no fluorescence staining ability” and the “fluorescence staining ability, probe pretreated at 85° C. before staining” value is on record as “can be fluorescently stained”.

Regarding FAM-Ahx-(GOP)10-NH2 [GOP-10], in series [5], the “binding to pathological collagen” value is recorded as “can specifically bind to pathological collagen”. In series [1], the “conformational state … at 0° C.” value is “stable single-stranded conformation (green)” and the “conformational state … after heating” value is “single-stranded state (green)”. In addition, the “change” value in series [2] is “does not change”. In series [3], the “fluorescence intensity in the range of 0-95° C.” value was “does not change”. Besides, in series [4], the “fluorescence staining ability, probe incubated at 0° C. before staining” value is recorded as “good fluorescence staining ability” and the “fluorescence staining ability, probe pretreated at 85° C. before staining” value is “good fluorescence staining ability”. Besides, the “fluorescence staining of injured mouse ear tissue” value in series [6] (collagen denatured at 85° C. for 10 min, FIG. 6a) is recorded as “stained green”. In addition, the “fluorescence staining of normal mouse ear tissue” value in series [6] (untreated ear tissue, FIG. 6b) is listed as “no green fluorescence”. Also, the “staining of pathological section of fibrocartilage of human osteoarthritis” value in series [7] (FIG. 7) is given as “can specifically bind to pathological collagen”. The “staining of pathological section of hyaline cartilage of human osteoarthritis” value in series [7] (FIG. 8) is “can specifically bind to pathological collagen”.

With FAM-Ahx-(GPO)10-NH2 [GPO-10], in series [1], the “conformational state … at 0° C.” value is given as “trimer state (orange)” and the “conformational state … after heating” value is on record as “single-stranded conformation (green)”. Further, the “change” value in series [2] is “changed significantly”. In addition, in series [3], the “fluorescence intensity in the range of 0-95° C.” value was “increased significantly” and the thermal transformation temperature worked out at 63 °C. In series [4], the “fluorescence staining ability, probe incubated at 0° C. before staining” value is on record as “no fluorescence staining ability” and the “fluorescence staining ability, probe pretreated at 85° C. before staining” value is on record as “can be fluorescently stained”.

Consider FAM-Ahx-(GOP)8-NH2 [GOP-8], for which, in series [5], the “binding to pathological collagen” value was “can specifically bind to pathological collagen”.

Regarding FAM-Ahx-(GPP)10-NH2 [GPP-10], in series [1], the “conformational state … at 0° C.” value is recorded as “trimer state (orange)” and the “conformational state … after heating” value was “single-stranded conformation (green)”. The “change” value in series [2] is listed as “changed significantly”. In addition, in series [3], the “fluorescence intensity in the range of 0-95° C.” value is recorded as “increased significantly” and the thermal transformation temperature was determined as 39 °C. For the same substance, in series [4], the “fluorescence staining ability, probe incubated at 0° C. before staining” value is reported as “no fluorescence staining ability” and the “fluorescence staining ability, probe pretreated at 85° C. before staining” value is “can be fluorescently stained”.

In the case of FAM-Ahx-(GOP)12-NH2 [GOP-12], the “binding to pathological collagen” value in series [5] is on record as “can specifically bind to pathological collagen”.
